The source of these data is patent US8685953B2, “Linear and cyclic guanidine derivatives, method of preparation and uses thereof” (Universita Degli Studi Di Siena, priority 2008, dated 2014).

SMILES strings stand for the structures. Converted amounts (≈) assume the structure as drawn.

Experiment in all cases: MIC determination by AFST-EUCAST standard methodology
Assay [1] has as its system C. parapsilosis ATCC 34136. Format: cell-based. Particulars: 24 h, visually and spectrophotometrically, read-out: Antifungal activity, expressed as MIC50. On the procedure:
(§1) Determination of MICs by AFST-EUCAST Standard Methodology
(§2) Assay medium. The assay medium was RPMI […] without NaHCO3 and with L-glutamine (Sigma Aldrich, Italy), buffered at pH 7.0 with 0.165 M morpholinepropanesulphonic acid (Sigma Aldrich, Italy) and supplemented with 2% (w/v) glucose. The medium, prepared as double-strength solution, was sterilized by filtration and diluted 1:2 (v/v) with the fungal inoculum prepared in sterile distilled water.
(§3) The yeast isolates were grown on Sabouraud dextrose agar (Oxoid, Madrid, Spain) for 48 h at 37° C. before testing. Suspensions were prepared by combining five distinct colonies of each culture of >1 mm diameter. A spectrophotometric procedure for inoculum preparation was used. The final inoculum suspension, prepared in sterile distilled water, contained between 0.5·10^5 and 2.5·10^5 cfu/mL.
(§4) Stock solutions of test compounds were prepared in 100% dimethyl sulfoxide. Stock solutions were prepared as 100× concentration relative to the highest concentration in the antifungal activity test, and frozen at −70° C. until used.
(§5) Sterile plastic micro titration plates containing flat-bottomed wells were used. The plates contained serial dilution of the antifungal agents with a volume of assay medium of 100 μL/well. Two drug-free medium wells were used as sterility and growth controls. The trays were inoculated with 100 μL/well of the final inoculum, with the exception of sterility control wells. The range of concentrations tested for each drug was 1.25-80 μM. The microtitration plates were incubated at 37° C. for 24 h. The minimal inhibitory concentrations (MICs) were determined at 24 h both visually and spectrophotometrically.
(§6) By visual endpoint determination, MICs were determined according to a S-1-R scale, with S (susceptible) indicating an optical clear culture, I (intermediate susceptibility) indicating a slightly hazy culture, and R (resistant) indicating no reduction in turbidity. The MIC50 was defined as the lowest concentration of a drug which correspond to a S culture.
(§7) Microtitration plates were stirred using a microtitration plate shaker before reading to ensure uniform turbidity. MICs were obtained by measuring the absorbance at 450 nm with a microtitration plate reader. The value of the blank was subtracted from reading of the rest of the wells. Two endpoints were defined for each antifungal agent tested, with MIC80 indicating the lowest drug concentration resulting in a reduction of growth of 80% or more (determined spectrophotometrically) compared with the growth of the control, and MIC50 indicating the lowest drug concentration resulting in a reduction in growth of 50% (determined spectrophotometrically) compared with the growth of the control. The MIC50 was also defined as the spectrophotometric endpoint.

For assay [2], the system named is C. parapsilosis 81E. Format: cell-based. Particulars: 24 h, visually and spectrophotometrically, read-out: Antifungal activity, expressed as MIC50. On the procedure: as §1, §2, §3, §4, §5, §6, §7
The test system of assay [3] is C. tropicalis 86E. Format: cell-based. Conditions: 24 h, visually and spectrophotometrically, read-out: Antifungal activity, expressed as MIC50. On the procedure:
as §1, §2, §3, §4, §5, §6, §7

The subject of assay [4] is C. glabrata 70E. Format: cell-based. Particulars: C. glabrata 70E; 24 h, visually and spectrophotometrically; read-out: Antifungal activity, expressed as MIC50. On the procedure:
as §1, §2, §3, §4, §5, §6, §7

The test system of assay [5] is C. parapsilosis 64E. Format: cell-based. Conditions: 24 h, visually and spectrophotometrically, read-out: Antifungal activity, expressed as MIC50. As to the method: as §1, §2, §3, §4, §5, §6, §7
The test system of assay [6] is C. krusei 193T. Format: cell-based. Conditions: 24 h, visually and spectrophotometrically, read-out: Antifungal activity, expressed as MIC50. As to the method: as §1, §2, §3, §4, §5, §6, §7
Assay [7] deals with C. krusei ATCC 14243. Format: cell-based. Conditions: 24 h, visually and spectrophotometrically, read-out: Antifungal activity, expressed as MIC50. On the procedure:
as §1, §2, §3, §4, §5, §6, §7

Assay [8] relates to C. albicans ATCC 60193. Format: cell-based, Candida albicans. Conditions: 24 h, visually and spectrophotometrically, read-out: Antifungal activity, expressed as MIC50. As to the method: as §1, §2, §3, §4, §5, §6, §7
The test system of assay [9] is C. albicans 4T. Format: cell-based, Candida albicans. Particulars: 24 h, visually and spectrophotometrically, read-out: Antifungal activity, expressed as MIC50. On the procedure:
as §1, §2, §3, §4, §5, §6, §7

Assay [10] has as its system C. albicans 53T. Format: cell-based, Candida albicans. Conditions: 24 h, visually and spectrophotometrically, read-out: Antifungal activity, expressed as MIC50. As to the method:
as §1, §2, §3, §4, §5, §6, §7

In assay [11] the test system is C. albicans 15T. Format: cell-based, Candida albicans. Conditions: 24 h, visually and spectrophotometrically, read-out: Antifungal activity, expressed as MIC50. As to the method: as §1, §2, §3, §4, §5, §6, §7

Turning to `N=C(N)NCCCCCCCCNCCCCCCCCNC(=N)NCC1CC1` [Compound 12c], the MIC50 in assay [1] was found to be 80 µM (≈ 32.8 µg/mL); in assay [2] it was 20 µM (≈ 8.19 µg/mL); in [3], 5 µM (≈ 2.05 µg/mL); in [4], 20 µM (≈ 8.19 µg/mL); in [5], 5 µM (≈ 2.05 µg/mL); in assay [6], 10 µM (≈ 4.1 µg/mL). In addition, the MIC50 was 5 µM (≈ 2.05 µg/mL) in assay [7]; 20 µM (≈ 8.19 µg/mL) in assay [8]; 10 µM (≈ 4.1 µg/mL) in assay [9]; 10 µM (≈ 4.1 µg/mL) in assay [10]; 20 µM (≈ 8.19 µg/mL) in assay [11].
Consider `CC(C)=CCNC(=N)NCCCCCCCCNCCCCCCCCNC(=N)N` [Compound 12f], for which the MIC50 was greater than 80 µM in assay [1]; 40 µM (≈ 16.9 µg/mL) in assay [2]; 20 µM (≈ 8.47 µg/mL) in assay [3]; 80 µM (≈ 33.9 µg/mL) in assay [4]; greater than 80 µM in assay [5]; 20 µM (≈ 8.47 µg/mL) in assay [6]. The MIC50 in assay [7] was 40 µM (≈ 16.9 µg/mL); in assay [8], 80 µM (≈ 33.9 µg/mL); in assay [9] it was 80 µM (≈ 33.9 µg/mL); in assay [10], 80 µM (≈ 33.9 µg/mL); in assay [11] it was 40 µM (≈ 16.9 µg/mL).
On to `N=C(NCCCCCCCCN1CCCCCCCCNC(=N)NC1=O)NCc1ccccc1` [Compound 13a], for which the MIC50 is 80 µM (≈ 37.7 µg/mL) in assay [1]; 20 µM (≈ 9.43 µg/mL) in assay [2]; 2.5 µM (≈ 1.18 µg/mL) in assay [3]; 40 µM (≈ 18.9 µg/mL) in assay [4]; 20 µM (≈ 9.43 µg/mL) in assay [5]; 10 µM (≈ 4.72 µg/mL) in assay [6]. Besides, the MIC50 was found to be 20 µM (≈ 9.43 µg/mL) in [7]; 2.5 µM (≈ 1.18 µg/mL) in assay [8]; 2.5 µM (≈ 1.18 µg/mL) in [9]; 2.5 µM (≈ 1.18 µg/mL) in [10]; 5 µM (≈ 2.36 µg/mL) in assay [11].
With `C#CCNC(=N)NCCCCCCCCN1CCCCCCCCNC(=N)NC1=O` [Compound 13b], the MIC50 in assay [1] amounted to 40 µM (≈ 16.8 µg/mL); in assay [2], 80 µM (≈ 33.6 µg/mL); in assay [3], 5 µM (≈ 2.1 µg/mL); in assay [4], 80 µM (≈ 33.6 µg/mL); in assay [5], 40 µM (≈ 16.8 µg/mL); in assay [6], 40 µM (≈ 16.8 µg/mL). The MIC50 in assay [7] is reported as 80 µM (≈ 33.6 µg/mL); in assay [8], 2.5 µM (≈ 1.05 µg/mL); in [9], 80 µM (≈ 33.6 µg/mL); in assay [10], 5 µM (≈ 2.1 µg/mL); in assay [11], 2.5 µM (≈ 1.05 µg/mL).
For `CC=CCNC(=N)NCCCCCCCCN1CCCCCCCCNC(=N)NC1=O` [Compound 13d], the MIC50 in assay [1] amounted to 5 µM (≈ 2.18 µg/mL); in assay [2], 5 µM (≈ 2.18 µg/mL); in assay [3], 1.25 µM (≈ 0.545 µg/mL); in assay [4], 20 µM (≈ 8.71 µg/mL); in assay [5], 5 µM (≈ 2.18 µg/mL); in assay [6], 5 µM (≈ 2.18 µg/mL). Moreover, the MIC50 in assay [7] was 5 µM (≈ 2.18 µg/mL); in assay [8], 2.5 µM (≈ 1.09 µg/mL); in assay [9], 1.25 µM (≈ 0.545 µg/mL); in assay [10] it was 2.5 µM (≈ 1.09 µg/mL); in [11] it was 1.25 µM (≈ 0.545 µg/mL).
